In patent US8227406B2, “Antimicrobial peptides” (Dermagen AB, priority 2006, dated 2012):

Tests used:
[1] = tested on: Staphylococcus aureus ATCC29213; assay: Radial diffusion assay (RDA), S. aureus; type: cell-based; conditions: Table 1b; 10 mM Tris Hcl (pH 7.4)
Method: (§1) Peptides. Peptides were from Sigma-Genosys, generated by a peptide synthesis platform (PEPscreen®, Custom Peptide Libraries, SigmaGenosys). Yield was ˜1-6 mg, and peptide length 20 amino acids. MALDI-ToF Mass Spectrometry was perfomed on these peptides. Average Crude Purity of 20mers was ˜60%. Peptides were supplied lyophilized and in a 96-well tube rack. Prior to biological testing the PEPscreen peptides were diluted in dH2O (5 mM stock), and stored at −20 C. This stock solution was used for the subsequent experiments.
(§2) Eschericia coli ATCC25922, Staphylococcus aureus ATCC29213, and the fungal isolate Candida albicans ATCC90028 were obtained from the Department of Bacteriology, Lund University Hospital.
(§3) Radial diffusion assays (RDA) were performed essentially as described earlier (Lehrer, R. I., Rosenman, M., Harwig, S. S., Jackson, R. & Eisenhauer, P. (1991) Ultrasensitive assays for endogenous antimicrobial polypeptides, J Immunol Methods. 137, 167-73). Briefly, bacteria (E. coli, S. aureus) or fungi (C. albicans) were grown to midlogarithmic phase in 10 ml of full-strength (3% w/v) trypticase soy broth (TSB) (Becton-Dickinson, Cockeysville, Md.). The microorganisms were washed once with 10 mM Tris, pH 7.4. 4×10^6 bacterial cfu or 1×10^5 fungal cfu was added to 5 ml of the underlay agarose gel, consisting of 0.03% (w/v) TSB, 1% (w/v) low-electroendoosmosistype (Low-EEO) agarose (Sigma, St Louise Mo.) and a final concentration of 0.02% (v/v) Tween 20 (Sigma). The underlay was poured into a Ø 85 mm petri dish. After agarose solidified, 4 mm-diameter wells were punched and 6 μl of test sample was added to each well. Plates were incubated at 37° C. for 3 hours to allow diffusion of the peptides. The underlay gel was then covered with 5 ml of molten overlay (6% TSB and 1% Low-EEO agarose in dH2O). Antimicrobial activity of a peptide is visualized as a clear zone around each well after 18-24 hours of incubation at 37° C. for bacteria and 28° C. for Candida albicans. Other examples of peptides that were screened and found to show an increased effect against the above mentioned microorgansism are listed below. Some of the results are found in table 1c showing the effects against C. albicans, table 1d E. coli and table 1e S. aureus.

[2] = tested on: Eschericia coli ATCC25922; assay: Radial diffusion assay (RDA), E. coli; type: cell-based, Escherichia coli; conditions: Table 1b; 10 mM Tris Hcl (pH 7.4)
Method: as §1, §2, §3

Substance	RDA values (mm) S. aureus ATCC 29213 [1] [mm]	RDA values (mm) E. coli ATCC 25922 [2] [mm]
KWWW [Peptide T11]	0.00	0.00
KNKGKKNGWWWWW [Peptide T15]	3.90	8.03
WWW [Peptide T12]	0.00	0.00
KKWWW [Peptide T55]	1.01	2.95
KGKKNGKHWWW [Peptide T25]	2.55	8.87
NKGKKNGKHWWW [Peptide T24]	2.41	8.44
KNGKHWWW [Peptide T28]	0.00	4.99
KNKGKWWW [Peptide T7]	0.00	6.84
WWWK [Peptide T42]	0.00	0.00
KNKGWWWWW [Peptide T19]	1.10	4.49
KKNGKHWWW [Peptide T27]	1.68	7.56
KNKGKKNGKHGSGSPWWW [Peptide T61]	1.52	8.64
KNKGKKNGKWWWWW [Peptide T14]	5.07	7.90
KNKGKKNGKHWWW [Peptide T23]	3.26	8.65
KWWW [Peptide T56]	0.75	4.48
KNWWWWW [Peptide T21]	0.00	1.70
KNKGKKNWWW [Peptide T5]	2.85	8.36
KNKGKKWWWWW [Peptide T17]	3.88	8.98
KKKKKKKKKK [Peptide T46]	1.32	5.94
KKKKKKKKKWWW [Peptide T48]	7.19	9.26

Substance	RDA values (mm) S. aureus ATCC 29213 [1] [mm]	RDA values (mm) E. coli ATCC 25922 [2] [mm]
DDDDDDDDDD [Peptide T59]	0.00	0.00
KWWWWW [Peptide T22]	0.00	2.18
WWWKNKGKK [Peptide T37]	0.11	3.28
KNKGWWW [Peptide T8]	0.00	2.94
KNKGKKNGKH [Peptide T1]	0.00	2.56
HWWW [Peptide T32]	0.00	0.00
KNKGKKWWW [Peptide T6]	2.79	8.16
NGKHWWW [Peptide T29]	0.00	0.00
KKKKKKKKKKWWW [Peptide T47]	4.46	7.48
KNWWW [Peptide T10]	0.00	2.69
KNKWWWWW [Peptide T20]	0.55	4.22
WWWKNKGKKNGKH [Peptide T33]	2.20	7.95
KKKKWWW [Peptide T53]	2.85	8.11
KNKGKKNWWWWW [Peptide T16]	3.83	9.09
WWWKN [Peptide T41]	0.00	0.00
DDDDDDDDDDWWW [Peptide T60]	0.00	0.00
KKKKKKWWW [Peptide T51]	4.16	8.12
WWWKNKGKKNGK [Peptide T34]	0.43	4.94
KKKKKKKWWW [Peptide T50]	4.90	7.82
GKKNGKHWWW [Peptide T26]	1.76	7.47

Substance	RDA values (mm) S. aureus ATCC 29213 [1] [mm]	RDA values (mm) E. coli ATCC 25922 [2] [mm]
KHWWW [Peptide T31]	0.00	1.48
WWWKNKGKKNG [Peptide T35]	0.00	1.57
KKKKKWWW [Peptide T52]	3.43	9.01
WWWKNKGK [Peptide T38]	0.00	1.42
SNSGSSNGSHWWW [Peptide T44]	0.00	0.00
KNKWWW [Peptide T9]	0.00	2.73
SSSSSSSSSSWWW [Peptide T58]	0.00	0.00
WWWKNKGKKN [Peptide T36]	0.66	5.04
SSSSSSSSSS [Peptide T57]	0.00	0.00
KNKGKKNGKHWWWWW [Peptide T13]	5.58	7.93
KNKGKKNGKHWWW [Peptide T2]	4.23	8.90
KNKGKKNGKWWW [Peptide T3]	4.07	9.16
WWWSNSGSSNGSH [Peptide T45]	0.00	0.00
KNKGKWWWWW [Peptide T18]	1.82	8.21
WWWKNK [Peptide T40]	0.00	0.00
KKKWWW [Peptide T54]	2.02	4.93
GKHWWW [Peptide T30]	0.00	3.05
KKKKKKKKWWW [Peptide T49]	5.48	7.90
SNSGSSNGSH [Peptide T43]	0.00	0.00
WWWKNKG [Peptide T39]	0.00	0.00
